# Test results: ChEMBL document CHEMBL5518209, “Caltrop-like Small-Molecule Antidotes That Neutralize Unfractionated Heparin and Low-Molecular-Weight Heparin In Vivo” (J Med Chem, 2024)
# Active and inactive are the calls of the source. The rule behind the calls is not given here.
# Columns and labels:
# Bos taurus [1] = organism: Bos taurus; assay: Neutralization of nadroparin calcium in bovine plasma at 10 to 60 ug/ml by aPTT assay; format: cell-free; details: dose 10-60 µg/ml
# Bos taurus [2] = organism: Bos taurus; assay: Neutralization of enoxaparin sodium in bovine plasma at 10 to 60 ug/ml by aPTT assay; format: cell-free; details: dose 10-60 µg/ml
# Bos taurus [3] = organism: Bos taurus; assay: Neutralization of dalteparin sodium in bovine plasma at 10 to 60 ug/ml by aPTT assay; format: cell-free; details: dose 10-60 µg/ml
# Bos taurus [4] = organism: Bos taurus; assay: Neutralization of unfractionated heparin in bovine plasma at 10 to 60 ug/ml by aPTT assay; format: cell-free; details: dose 10-60 µg/ml
# Bos taurus [5] = organism: Bos taurus; assay: Neutralization of dalteparin sodium in bovine plasma at 10 to 60 ug/ml by aPTT assay relative to control; format: cell-free; details: dose 10-60 µg/ml
# Bos taurus [6] = organism: Bos taurus; assay: Neutralization of unfractionated heparin in bovine plasma at 10 to 60 ug/ml by aPTT assay relative to control; format: cell-free; details: dose 10-60 µg/ml
# Bos taurus [7] = organism: Bos taurus; assay: Neutralization of nadroparin calcium in bovine plasma at 10 to 60 ug/ml by aPTT assay relative to control; format: cell-free; details: dose 10-60 µg/ml
# Homo sapiens [8] = organism: Homo sapiens; assay: Neutralization of enoxaparin sodium in human poor platelet plasma at 10 to 50 ug/ml by aPTT assay relative to control; format: cell-free; details: dose 10-50 µg/ml
# Homo sapiens [9] = organism: Homo sapiens; assay: Neutralization of dalteparin sodium in human poor platelet plasma at 10 to 50 ug/ml by aPTT assay relative to control; format: cell-free; details: dose 10-50 µg/ml
# Bos taurus [10] = organism: Bos taurus; assay: Neutralization of enoxaparin sodium in bovine plasma at 10 to 60 ug/ml by aPTT assay relative to control; format: cell-free; details: dose 10-60 µg/ml
# [11] = Acute toxicity in iv dosed ICR mouse assessed as maximum tolerated dose measured after 7 days; format: organism-based; details: in vivo, time 7 day
# Homo sapiens [12] = organism: Homo sapiens; assay: Neutralization of unfractionated heparin in human poor platelet plasma at 10 to 50 ug/ml by aPTT assay relative to control; format: cell-free; details: dose 10-50 µg/ml
# [13] = Binding affinity to nadroparin calcium in saline at pH 7.4 assessed as change in enthalpy by ITC analysis
# [14] = Binding affinity to enoxaparin sodium in saline at pH 7.4 assessed as binding constant by ITC analysis
# [15] = Binding affinity to dalteparin sodium in saline at pH 7.4 assessed as change in entropy by ITC analysis
# [16] = Binding affinity to dalteparin sodium in saline at pH 7.4 assessed as change in enthalpy by ITC analysis
# Homo sapiens [17] = organism: Homo sapiens; assay: Neutralization of dalteparin sodium in human poor platelet plasma at 10 to 50 ug/ml by aPTT assay; format: cell-free; details: dose 10-50 µg/ml
# [18] = Blood compatibility in bovine plasma assessed as activated partial thromboplastin time at <23 ug/ml by turbidimetry method; format: toxicity, cell-free, Bos taurus; details: cattle, dose < 23 µg/ml
# [19] = Binding affinity to nadroparin calcium in saline at pH 7.4 assessed as binding constant by ITC analysis
# [20] = Binding affinity to enoxaparin sodium in saline at pH 7.4 assessed as change in enthalpy by ITC analysis
# [21] = Binding affinity to unfractionated heparin in saline at pH 7.4 assessed as change in enthalpy by ITC analysis
# [22] = Binding affinity to enoxaparin sodium in saline at pH 7.4 assessed as change in entropy by ITC analysis
# Erythrocyte [23] = assay: Hemolytic activity in Sprague-Dawley rat red blood cells at 256 ug/ml; format: toxicity, cell-based; details: dose 256 µg/ml
# [24] = Binding affinity to nadroparin calcium in saline at pH 7.4 assessed as change in gibbs free energy by ITC analysis
# [25] = Binding affinity to unfractionated heparin in saline at pH 7.4 assessed as change in entropy by ITC analysis
# [26] = Binding affinity to unfractionated heparin in saline at pH 7.4 assessed as change in gibbs free energy by ITC analysis
# [27] = Binding affinity to nadroparin calcium in saline at pH 7.4 assessed as change in entropy by ITC analysis
# [28] = Binding affinity to enoxaparin sodium in saline at pH 7.4 assessed as change in gibbs free energy by ITC analysis
# [29] = Binding affinity to dalteparin sodium in saline at pH 7.4 assessed as change in gibbs free energy by ITC analysis
# [30] = Binding affinity to dalteparin sodium in saline at pH 7.4 assessed as binding constant by ITC analysis
# Erythrocyte [31] = assay: Hemolytic activity in human red blood cells at 256 ug/ml; format: toxicity, cell-based; details: dose 256 µg/ml
# [32] = Binding affinity to unfractionated heparin in saline at pH 7.4 assessed as binding constant by ITC analysis
# Erythrocyte [33] = assay: Hemolytic activity in Sprague-Dawley rat red blood cells at 512 ug/ml; format: toxicity, cell-based; details: dose 512 µg/ml
# Homo sapiens [34] = organism: Homo sapiens; assay: Reversal of anticoagulation of unfractionated heparin in human whole blood assessed as minimum effective dose incubated for 5 mins by thromboelastography; format: tissue-based
# Homo sapiens [35] = organism: Homo sapiens; assay: Reversal of anticoagulation of enoxaparin sodium in human whole blood assessed as minimum effective dose incubated for 5 mins by thromboelastography; format: tissue-based
# Erythrocyte [36] = assay: Hemolytic activity in human red blood cells at 512 ug/ml; format: toxicity, cell-based; details: dose 512 µg/ml
# Homo sapiens [37] = organism: Homo sapiens; assay: Neutralization of enoxaparin sodium in human poor platelet plasma at 10 to 50 ug/ml by aPTT assay; format: cell-free; details: dose 10-50 µg/ml
# Homo sapiens [38] = organism: Homo sapiens; assay: Reversal of anticoagulation of nadroparin calcium in human whole blood assessed as minimum effective dose incubated for 5 mins by thromboelastography; format: tissue-based
# Homo sapiens [39] = organism: Homo sapiens; assay: Reversal of anticoagulation of dalteparin sodium in human whole blood assessed as minimum effective dose incubated for 5 mins by thromboelastography; format: tissue-based
# [40] = Blood compatibility in bovine plasma assessed as activated partial thromboplastin time at <54 ug/ml by turbidimetry method; format: toxicity, cell-free, Bos taurus; details: cattle, dose < 54 µg/ml
structure (smiles),measurement,setting,value
c1cc[n+](Cc2ccc(C(c3ccc(C[n+]4ccccc4)cc3)(c3ccc(C[n+]4ccccc4)cc3)c3ccc(C[n+]4ccccc4)cc3)cc2)cc1,Activity,Bos taurus [1],inactive
same,Activity,Bos taurus [2],inactive
same,Activity,Bos taurus [3],inactive
same,Activity,Bos taurus [4],inactive
NCCCOc1ccc(-c2cc[n+](Cc3ccc(C(c4ccc(C[n+]5ccc(-c6ccc(OCCCN)cc6)cc5)cc4)(c4ccc(C[n+]5ccc(-c6ccc(OCCCN)cc6)cc5)cc4)c4ccc(C[n+]5ccc(-c6ccc(OCCCN)cc6)cc5)cc4)cc3)cc2)cc1.[Cl-].[Cl-].[Cl-].[Cl-],Activity,Bos taurus [5],> 98%
same,Activity,Bos taurus [1],Active
same,Activity,Bos taurus [6],> 98%
same,Activity,Bos taurus [2],Active
same,Activity,Bos taurus [7],> 86%
same,Activity,Homo sapiens [8],> 98%
same,Activity,Bos taurus [3],Active
same,Activity,Homo sapiens [9],> 98%
same,Activity,Bos taurus [10],> 98%
same,MTD at 168 h,[11],15 mg/kg
same,Activity,Homo sapiens [12],> 98%
same,Activity,Bos taurus [4],Active
NCCOc1ccc(-n2cc[n+](Cc3ccc(C(c4ccc(C[n+]5ccn(-c6ccc(OCCN)cc6)c5)cc4)(c4ccc(C[n+]5ccn(-c6ccc(OCCN)cc6)c5)cc4)c4ccc(C[n+]5ccn(-c6ccc(OCCN)cc6)c5)cc4)cc3)c2)cc1,Activity,Bos taurus [1],Active
same,Activity,Bos taurus [2],Active
same,Activity,Bos taurus [3],Active
same,Activity,Bos taurus [4],Active
NCCOc1ccc2c[n+](Cc3ccc(C(c4ccc(C[n+]5ccc6cc(OCCN)ccc6c5)cc4)(c4ccc(C[n+]5ccc6cc(OCCN)ccc6c5)cc4)c4ccc(C[n+]5ccc6cc(OCCN)ccc6c5)cc4)cc3)ccc2c1,Activity,Bos taurus [1],Active
same,Activity,Bos taurus [2],Active
same,Activity,Bos taurus [3],Active
same,Activity,Bos taurus [4],Active
NCCSc1ccc(-c2cc[n+](Cc3ccc(C(c4ccc(C[n+]5ccc(-c6ccc(SCCN)cc6)cc5)cc4)(c4ccc(C[n+]5ccc(-c6ccc(SCCN)cc6)cc5)cc4)c4ccc(C[n+]5ccc(-c6ccc(SCCN)cc6)cc5)cc4)cc3)cc2)cc1.[Cl-].[Cl-].[Cl-].[Cl-],Activity,Bos taurus [1],Active
same,Activity,Bos taurus [2],Active
same,Activity,Bos taurus [3],Active
same,MTD at 168 h,[11],8 mg/kg
same,Activity,Bos taurus [4],Active
COc1ccc(-c2cc[n+](Cc3ccc(C(c4ccc(C[n+]5ccc(-c6ccc(OC)cc6)cc5)cc4)(c4ccc(C[n+]5ccc(-c6ccc(OC)cc6)cc5)cc4)c4ccc(C[n+]5ccc(-c6ccc(OC)cc6)cc5)cc4)cc3)cc2)cc1,Activity,Bos taurus [1],inactive
same,Activity,Bos taurus [2],inactive
same,Activity,Bos taurus [3],inactive
same,Activity,Bos taurus [4],inactive
NCCOc1cc(-c2cc[n+](Cc3ccc(C(c4ccc(C[n+]5ccc(-c6cc(OCCN)c(OCCN)c(OCCN)c6)cc5)cc4)(c4ccc(C[n+]5ccc(-c6cc(OCCN)c(OCCN)c(OCCN)c6)cc5)cc4)c4ccc(C[n+]5ccc(-c6cc(OCCN)c(OCCN)c(OCCN)c6)cc5)cc4)cc3)cc2)cc(OCCN)c1OCCN.[Cl-].[Cl-].[Cl-].[Cl-],deltaH,[13],-20.2 kJ/mol
same,Ka,[14],4.85e+06 M⁻¹
same,-TdeltaS,[15],-18.7 kJ/mol
same,deltaH,[16],-20.3 kJ/mol
same,Activity,Homo sapiens [17],Active
same,APTT,[18],23 s
same,Ka,[19],5.43e+06 M⁻¹
same,Activity,Bos taurus [3],Active
same,deltaH,[20],-23.6 kJ/mol
same,deltaH,[21],-22.3 kJ/mol
same,MTD at 168 h,[11],20 mg/kg
same,-TdeltaS,[22],-14.6 kJ/mol
same,Activity,Erythrocyte [23],Non-Toxic
same,deltaG,[24],-38.5 kJ/mol
same,-TdeltaS,[25],-15.2 kJ/mol
same,deltaG,[26],-37.5 kJ/mol
same,-TdeltaS,[27],-18.3 kJ/mol
same,deltaG,[28],-38.2 kJ/mol
same,deltaG,[29],-39.1 kJ/mol
same,Ka,[30],7.09e+06 M⁻¹
same,Activity,Erythrocyte [31],Non-Toxic
same,Ka,[32],3.72e+06 M⁻¹
NCC(=O)Nc1ccc(-c2cc[n+](Cc3ccc(C(c4ccc(C[n+]5ccc(-c6ccc(NC(=O)CN)cc6)cc5)cc4)(c4ccc(C[n+]5ccc(-c6ccc(NC(=O)CN)cc6)cc5)cc4)c4ccc(C[n+]5ccc(-c6ccc(NC(=O)CN)cc6)cc5)cc4)cc3)cc2)cc1.[Cl-].[Cl-].[Cl-].[Cl-],Activity,Bos taurus [5],> 98%
same,Activity,Bos taurus [1],Active
same,Activity,Bos taurus [6],> 98%
same,Activity,Bos taurus [2],Active
same,Activity,Homo sapiens [8],> 98%
same,Activity,Bos taurus [3],Active
same,Activity,Homo sapiens [9],> 98%
same,Activity,Bos taurus [10],> 98%
same,MTD at 168 h,[11],8 mg/kg
same,Activity,Homo sapiens [12],> 98%
same,Activity,Bos taurus [4],Active
Cn1cc[n+](Cc2ccc(C(c3ccc(C[n+]4ccn(C)c4)cc3)(c3ccc(C[n+]4ccn(C)c4)cc3)c3ccc(C[n+]4ccn(C)c4)cc3)cc2)c1,Activity,Bos taurus [1],inactive
same,Activity,Bos taurus [2],inactive
same,Activity,Bos taurus [3],inactive
same,Activity,Bos taurus [4],inactive
NCCOc1ccc(-c2cc[n+](Cc3ccc(C(c4ccc(C[n+]5ccc(-c6ccc(OCCN)cc6)cc5)cc4)(c4ccc(C[n+]5ccc(-c6ccc(OCCN)cc6)cc5)cc4)c4ccc(C[n+]5ccc(-c6ccc(OCCN)cc6)cc5)cc4)cc3)cc2)cc1.[Cl-].[Cl-].[Cl-].[Cl-],deltaH,[13],-18.3 kJ/mol
same,Activity,Erythrocyte [33],Non-Toxic
same,MED,Homo sapiens [34],12 µg/mL
same,Ka,[14],4.61e+06 M⁻¹
same,-TdeltaS,[15],-20.7 kJ/mol
same,deltaH,[16],-19 kJ/mol
same,Activity,Bos taurus [2],Active
same,Ka,[19],5e+06 M⁻¹
same,MED,Homo sapiens [35],10 µg/mL
same,Activity,Erythrocyte [36],Non-Toxic
same,deltaH,[20],-24.6 kJ/mol
same,deltaH,[21],-19.5 kJ/mol
same,Activity,Homo sapiens [37],Active
same,MED,Homo sapiens [38],10 µg/mL
same,MTD at 168 h,[11],17.5 mg/kg
same,-TdeltaS,[22],-13.5 kJ/mol
same,MED,Homo sapiens [39],10 µg/mL
same,deltaG,[24],-38.3 kJ/mol
same,-TdeltaS,[25],-18.5 kJ/mol
same,APTT,[40],23 s
same,deltaG,[26],-38.1 kJ/mol
same,-TdeltaS,[27],-20 kJ/mol
same,deltaG,[28],-38 kJ/mol
same,deltaG,[29],-39.6 kJ/mol
same,Ka,[30],8.77e+06 M⁻¹
same,Ka,[32],4.72e+06 M⁻¹
